Experimental data reported in US20260062449A1, “PEPTIDE COMPOSITIONS AND METHODS OF USE” (ONL Therapeutics, Inc., priority 2022, published 2026).
No end group written: not given here.

What was measured:
Jurkat cells = test: Cell viability preservation in vitro: cell confluence of Jurkat cells after 24-hour incubation with FasL; type: cell-based; settings: recombinant His-tagged FasL along with anti-His antibody
Protocol: Compounds (oligopeptides) of the present disclosure were assayed for their ability to effect cell confluence following a 24-hour incubation. Jurkat cells were incubated for 24 hours with varying concentrations of compound (i.e., 200, 66.7, 22.2, 7.4, 2.5, 0.8, 0.3, and 0.1) and with or without recombinant His-tagged FasL along with an anti-His antibody. After the 24-hour incubation, cell confluence was quantified using an S3 Incucyte Imaging System (Sartorius) and a Vi-CELL XR Cell Viability Analyzer (Beckman Coulter) and compared to controls (cells incubated in the absence of compound and cells incubated with a known Fas inhibitor).

[1] = Aqueous solubility / solution behaviour of Met-12; type: physicochemical
Source text: Experiments have clearly shown that Met-12 has to be dosed as a solution, both in vitro and in vivo, to show optimal activity, and producing such solutions in a largely aqueous medium has proven to be very difficult, especially under conditions which are acceptable for intravitreal injection. Dosing of suspensions or gels of Met-12 leads to major losses of potency. […] Despite extensive development work, the only solution formulations of Met-12 which have been found involve some very low pH solution injections (≤pH 2.8) or neat DMSO injections, all of which are suboptimal for intravitreal injections.

| Substance | Activity: lowest concentration that prevented loss of cell confluency (Jurkat cells) | aqueous solubility [1] | loss of material upon filtration ([1]; apparently clear 10 rang/mL solution in 20 mM citrate buffer pH 2.8) |
| --- | --- | --- | --- |
| NH2-HHIAAGAVNYIY-C(O)NH2 (H-HHIAAGAVNYIY-NH2) [Compound 6] | B (cell protection at 1.0 < x < 10.0 μM) | – | – |
| HHIYLGAVNYIY-NH2 [Compound A, reference compound] | A (cell protection at x < 1.0 μM) | – | – |
| NH2-HHIYLGGGGGNYIY-C(O)NH2 (H-HHIYLGGGGGNYIY-NH2) [Compound 7] | B (cell protection at 1.0 < x < 10.0 μM) | – | – |
| NH2-HHIYLGSSSSNYIY-C(O)NH2 (H-HHIYLGSSSSNYIY-NH2) [Compound 8] | B (cell protection at 1.0 < x < 10.0 μM) | – | – |
| HHIYLGAVNYIY [Met-12, H^60HIYLGAVNYIY^71] | – | extremely poor aqueous solubility | considerable loss of material upon filtration |
| NH2-KKIYLGAVNYIY-C(O)NH2 (H-KKIYLGAVNYIY-NH2) [Compound 9] | B (cell protection at 1.0 < x < 10.0 μM) | – | – |
| NH2-KHIYLGAVNYIY-C(O)NH2 (H-KHIYLGAVNYIY-NH2) [Compound 10] | A (cell protection at x < 1.0 μM) | – | – |
| NH2-HKIYLGAVNYIY-C(O)NH2 (H-HKIYLGAVNYIY-NH2) [Compound 11] | B (cell protection at 1.0 < x < 10.0 μM) | – | – |
